Test results published in publication PMC8445441, “Elucidating the mechanism by which synthetic helper peptides sensitize Pseudomonas aeruginosa to multiple antibiotics” (PLoS Pathogens, 2021).
Where “and” joins values, the source holds several entries; their conditions need not be identical. Equal values may be shown once. Read-outs that look alike come from different tables or passages of the source.

Columns and labels:
[1] = tested on: P. aeruginosa HM-214; parameters: MICa: MIC of the antibiotic / MICac: MIC of the antibiotic in the combination: unit not given beside the values; details: strain HM-214
Protocol: (§1) The MIC tests were performed in triplicate using broth microdilution in accordance with Clinical and Laboratory Standards Institute (CLSI) recommendations (http://iacld.ir/DL/public/CLSI-2018-M100-S28.pdf). Briefly, drugs were two-fold diluted in MHB and mixed with an equal volume of bacterial suspensions containing approximately 1 × 10^6 CFU/mL in 96-well microliter plate. After 18 h incubation at 37 °C, the MIC values were defined as the lowest concentrations of antibiotics with no visible growth of bacteria. […] Otherwise, 1/4 MIC of the peptide was used in the combination. […] If needed, membrane compounds PG, PE, PC, CL or LPS, or membrane stabilizers MgCl2 or CaCl2, or efflux pumps inhibitor PAβN were added to the broth medium to clarify the effect of other substances on the synergy between peptide and antibiotics. All the tests were performed in triplicate.
(§2) The fractional inhibitory concentration (FIC) indices were calculated using the previously described formula FICI = FICa + FICb = MICac/MICa + MICbc/MICb. The FICI was interpreted according to EUCAST [65] as follows: synergistic, FICI≤0.5; additive, 0.5<FICI≤1; indifferent, 1<FICI<2; antagonistic, FICI ≥2. For the FICI calculations, twice the highest concentration tested was used in the cases where the MIC was not reached.

[2] = tested on: P. aeruginosa AUMC-Pa-3; assay: microbe, parasite or virus in culture; details: strain AUMC-Pa-3; for MICac: MIC of the antibiotic in the combination: with D-11 at MICbc 4
Procedure, shortened: (§3)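 Two-fold serial dilutions in MHB received an equal volume of bacteria (suspension about 1 × 10^6 CFU/mL). Plates were held 18 h at 37 °C, then read visually for growth. Triplicate, CLSI-based.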

[3] = tested on: P. aeruginosa AUMC-Pa-4; assay: microbe, parasite or virus in culture; details: strain AUMC-Pa-4; for MICa: MIC of the antibiotic: antibiotic alone; for MICa: MIC of the antibiotic / MICac: MIC of the antibiotic in the combination: unit not given; for MICac: MIC of the antibiotic in the combination: with D-11 at MICbc 4
Procedure, shortened: as §3

[4] = tested on: P. aeruginosa AUMC-Pa-5; assay: microbe, parasite or virus in culture; details: strain AUMC-Pa-5; for MICa: MIC of the antibiotic: antibiotic alone; for MICa: MIC of the antibiotic / MICac: MIC of the antibiotic in the combination: unit not given; for MICac: MIC of the antibiotic in the combination: with D-11 at MICbc 4
Procedure, shortened: as §3

[5] = tested on: P. aeruginosa PAO1; assay: microbe, parasite or virus in culture; details: PAO1
Procedure, shortened: as §3

[6] = tested on: P. aeruginosa AUMC-Pa-6; assay: microbe, parasite or virus in culture; details: strain AUMC-Pa-6; for MICa: MIC of the antibiotic: antibiotic alone; for MICa: MIC of the antibiotic / MICac: MIC of the antibiotic in the combination: unit not given; for MICac: MIC of the antibiotic in the combination: with D-11 at MICbc 4
Procedure, shortened: as §3

[7] = tested on: P. aeruginosa AUMC-Pa-1; details: strain AUMC-Pa-1
Protocol: as §1, §2

[8] = tested on: P. aeruginosa AUMC-Pa-2; details: strain AUMC-Pa-2
Protocol: as §1, §2

[9] = tested on: P. aeruginosa NR-31041; assay: microbe, parasite or virus in culture; parameters: MICa: MIC of the antibiotic / MICac: MIC of the antibiotic in the combination: unit not given beside the values; details: strain NR-31041; for MICa: MIC of the antibiotic: antibiotic alone; for MICa: MIC of the antibiotic / MICac: MIC of the antibiotic in the combination: unit not given; for MICac: MIC of the antibiotic in the combination: with D-11 at MICbc 4
Protocol: as §1, §2

[10] = tested on: P. aeruginosa NR-31040; assay: microbe, parasite or virus in culture; parameters: MICa: MIC of the antibiotic / MICac: MIC of the antibiotic in the combination: unit not given beside the values; details: strain NR-31040; for MICa: MIC of the antibiotic: antibiotic alone; for MICa: MIC of the antibiotic / MICac: MIC of the antibiotic in the combination: unit not given; for MICac: MIC of the antibiotic in the combination: with D-11 at MICbc 4
Protocol: as §1, §2

[11] = tested on: P. aeruginosa ATCC27853; assay: microbe, parasite or virus in culture; parameters: MICa: MIC of the antibiotic / MICac: MIC of the antibiotic in the combination: unit not given beside the values; details: strain ATCC27853; for FICI: antibiotic + D-11 (MICb/MICbc 32/4); for MICa: MIC of the antibiotic: antibiotic alone; for MICa: MIC of the antibiotic / MICac: MIC of the antibiotic in the combination: unit not given; for MICac: MIC of the antibiotic in the combination: with D-11 at MICbc 4
Protocol: as §1, §2

[12] = tested on: P. aeruginosa PA14; assay: microbe, parasite or virus in culture; parameters: MICa: MIC of the antibiotic / MICac: MIC of the antibiotic in the combination: unit not given beside the values; details: strain PA14; for MICa: MIC of the antibiotic: antibiotic alone; for MICa: MIC of the antibiotic / MICac: MIC of the antibiotic in the combination: unit not given; for MICac: MIC of the antibiotic in the combination: with D-11 at MICbc 4
Protocol: as §1, §2

[13] = tested on: P. aeruginosa PAK; assay: microbe, parasite or virus in culture; parameters: MICa: MIC of the antibiotic / MICac: MIC of the antibiotic in the combination: unit not given beside the values; details: strain PAK; for MICa: MIC of the antibiotic: antibiotic alone; for MICa: MIC of the antibiotic / MICac: MIC of the antibiotic in the combination: unit not given; for MICac: MIC of the antibiotic in the combination: with D-11 at MICbc 4
Protocol: as §1, §2

[14] = tested on: clinical P. aeruginosa isolates; assay: microbe, parasite or virus in culture; details: antibiotic alone; for MIC: Pseudomonas aeruginosa, 18 h
Procedure, shortened: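 Broth microdilution per CLSI in MHB, two-fold drug dilutions mixed with an equal volume of bacteria at about 1 × 10^6 CFU/mL. After 18 h at 37 °C, MIC taken as the lowest concentration with no visible growth; run in triplicate.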

[15] = antibiotic + D-11 (MICb/MICbc 128/4)
[16] = antibiotic alone, unit not given
[17] = antibiotic + D-11 (MICb/MICbc 64/4)
[18] = with D-11 at MICbc 4, unit not given

CC1(C)S[C@@H]2[C@H](NC(=O)C(C(=O)O)c3ccccc3)C(=O)N2[C@H]1C(=O)O (stereo partly shown) [Carbenicillin]
0.188: FICI ([5]; S3 Table, antibiotic + 4 μM D-11)
128: MICa: MIC of the antibiotic [2, 16] | MICa: MIC of the antibiotic [3] | MICa: MIC of the antibiotic [11] | MICa: MIC of the antibiotic [13]
128/128: MICa: MIC of the antibiotic [4] | MICac: MIC of the antibiotic in the combination [4] | MICa: MIC of the antibiotic [6] | MICac: MIC of the antibiotic in the combination [6] | MICa: MIC of the antibiotic [9] | MICac: MIC of the antibiotic in the combination [9] | MICa: MIC of the antibiotic [12] | MICac: MIC of the antibiotic in the combination [12]
> 128 µM: MIC ([14]; read-out: Antibiotic sensibility (MIC) of clinical P. aeruginosa isolate AUMC-Pa-1, strain AUMC-Pa-1)
4 µM: MICac: the MIC for the antibiotic in the combination ([5]; S3 Table, with 4 μM D-11)
128 µM: MIC ([14]; read-out: Antibiotic sensibility (MIC) of clinical P. aeruginosa isolate AUMC-Pa-3, strain AUMC-Pa-3) | MIC ([14]; read-out: Antibiotic sensibility (MIC) of clinical P. aeruginosa isolate AUMC-Pa-4, strain AUMC-Pa-4) | MIC ([14]; read-out: Antibiotic sensibility (MIC) of clinical P. aeruginosa isolate AUMC-Pa-5, strain AUMC-Pa-5) | MIC ([14]; read-out: Antibiotic sensibility (MIC) of clinical P. aeruginosa isolate AUMC-Pa-6, strain AUMC-Pa-6) | MIC ([14]; read-out: Antibiotic sensibility (MIC) of clinical P. aeruginosa isolate HM-214, strain HM-214) | MIC ([14]; read-out: Antibiotic sensibility (MIC) of clinical P. aeruginosa isolate NR-31041, strain NR-31041)
32: MICac: MIC of the antibiotic in the combination ([2]; unit not given) | MICac: MIC of the antibiotic in the combination [11]
64: MICac: MIC of the antibiotic in the combination [3] | MICac: MIC of the antibiotic in the combination [13]
0.375: FICI [11]
0.531: FICI [3, 15] | FICI [7, 15]
0.313: FICI ([5]; S3 Table, antibiotic + 2 μM D-11)
64/64: MICa: MIC of the antibiotic [10] | MICac: MIC of the antibiotic in the combination [10]
0.563: FICI [13, 17]
1.031: FICI [1, 15] | FICI [10, 15] | FICI [12, 15]
0.281: FICI [2, 15]
16 µM: MICac: the MIC for the antibiotic in the combination ([5]; S3 Table, with 2 μM D-11)
64 µM: MICa: the MIC of antibiotics ([5]; S3 Table, antibiotic alone) | MIC ([14]; read-out: Antibiotic sensibility (MIC) of clinical P. aeruginosa isolate AUMC-Pa-2, strain AUMC-Pa-2) | MIC ([14]; read-out: Antibiotic sensibility (MIC) of clinical P. aeruginosa isolate NR-31040, strain NR-31040)
1.063: FICI [4, 17] | FICI [6, 17] | FICI [8, 17] | FICI [9, 17]

Spiramycin
higher than 128 μM: MIC of spiramycin alone [5]
>128/>128: MICa: MIC of the antibiotic [3] | MICac: MIC of the antibiotic in the combination [3]
>128/128: MICa: MIC of the antibiotic [1, 16] | MICac: MIC of the antibiotic in the combination [1, 18] | MICa: MIC of the antibiotic [4] | MICac: MIC of the antibiotic in the combination [4] | MICa: MIC of the antibiotic [6] | MICac: MIC of the antibiotic in the combination [6] | MICa: MIC of the antibiotic [8, 16] | MICac: MIC of the antibiotic in the combination [8, 18] | MICa: MIC of the antibiotic [9] | MICac: MIC of the antibiotic in the combination [9] | MICa: MIC of the antibiotic [10] | MICac: MIC of the antibiotic in the combination [10] | MICa: MIC of the antibiotic [11] | MICac: MIC of the antibiotic in the combination [11] | MICa: MIC of the antibiotic [12] | MICac: MIC of the antibiotic in the combination [12] | MICa: MIC of the antibiotic [13] | MICac: MIC of the antibiotic in the combination [13]
>128/>128 μM and >128/128 μM: MICa: the MIC of antibiotics ([5]; S1 Table, macrolide alone)
>128 µM: Antibiotic sensibility (MIC) of clinical P. aeruginosa isolate AUMC-Pa-1 ([14]; strain AUMC-Pa-1) | Antibiotic sensibility (MIC) of clinical P. aeruginosa isolate AUMC-Pa-2 ([14]; strain AUMC-Pa-2) | Antibiotic sensibility (MIC) of clinical P. aeruginosa isolate AUMC-Pa-3 ([14]; strain AUMC-Pa-3) | Antibiotic sensibility (MIC) of clinical P. aeruginosa isolate AUMC-Pa-4 ([14]; strain AUMC-Pa-4) | Antibiotic sensibility (MIC) of clinical P. aeruginosa isolate AUMC-Pa-5 ([14]; strain AUMC-Pa-5) | Antibiotic sensibility (MIC) of clinical P. aeruginosa isolate AUMC-Pa-6 ([14]; strain AUMC-Pa-6) | Antibiotic sensibility (MIC) of clinical P. aeruginosa isolate HM-214 ([14]; strain HM-214) | Antibiotic sensibility (MIC) of clinical P. aeruginosa isolate NR-31040 ([14]; strain NR-31040) | Antibiotic sensibility (MIC) of clinical P. aeruginosa isolate NR-31041 ([14]; strain NR-31041)
0.625: FICI ([5]; spiramycin + D-11, 256 used for the calculation) | FICI [11]
64: MICac: MIC of the antibiotic in the combination ([2]; unit not given) | MICac: MIC of the antibiotic in the combination [7, 18]
